The text below walks through data of ChEMBL document CHEMBL1671789, “Evaluation of quinazoline analogues as glucocerebrosidase inhibitors with chaperone activity” (J Med Chem, 2011).

Test [1] can be described thus: Inhibition of alpha-glucosidase.
Test [2] is described as follows: Inhibition of alpha-galactosidase.

Active and inactive are the calls of the source. How the calls were made is not given here.
Further: test concentration or dose not given here.

Regarding `COc1cccc(S(=O)(=O)N2CCN(c3nc(-c4cccs4)nc4ccccc34)CC2)c1`, the result in test [1] and in test [2] was inactive.
For `O=S(=O)(c1ccc2c(c1)OCCO2)N1CCN(c2nc(-c3ccccc3)nc3ccccc23)CC1`, the result in test [1] and in test [2] was inactive.
As for `O=S(=O)(c1ccccc1C(F)(F)F)N1CCN(c2nc(-c3ccccc3)nc3ccccc23)CC1`, the outcome in test [1] and in test [2] was inactive.
Consider `CCOc1ccc(S(=O)(=O)N2CCN(c3nc(-c4ccccc4)nc4ccccc34)CC2)cc1`, for which the result in test [1] and in test [2] was inactive.
On to `O=S(=O)(c1ccc(Br)cc1)N1CCN(c2nc(-c3cccs3)nc3ccccc23)CC1`, for which the result in test [1] and in test [2] was inactive.
For `Cc1ccc(S(=O)(=O)N2CCN(c3nc(-c4cnccn4)nc4ccccc34)CC2)cc1`, the result in test [1] and in test [2] was inactive.
Take `CS(=O)(=O)N1CCN(c2nc(-c3cccs3)nc3ccccc23)CC1`: the result in test [1] and in test [2] was inactive.
In the case of `O=S(=O)(c1cccc(F)c1)N1CCN(c2nc(-c3cccs3)nc3ccccc23)CC1`, the outcome in test [1] and in test [2] was inactive.
On to `O=[N+]([O-])c1ccccc1S(=O)(=O)N1CCN(c2nc(-c3cccs3)nc3ccccc23)CC1`, for which the outcome in test [1] and in test [2] was inactive.
As for `O=S(=O)(c1ccc(Br)cc1)N1CCN(c2nc(-c3ccccc3)nc3ccccc23)CC1`, the result in test [1] and in test [2] was inactive.
On to `O=S(=O)(c1ccc(OC(F)(F)F)cc1)N1CCN(c2nc(-c3ccccc3)nc3ccccc23)CC1`, for which the outcome in test [1] and in test [2] was inactive.
Regarding `COc1ccc(-c2nc(N3CCN(S(=O)(=O)c4ccc(C)cc4)CC3)c3ccccc3n2)cc1`, the result in test [1] and in test [2] was inactive.
In the case of `CC(C)(C)c1ccc(S(=O)(=O)N2CCN(c3nc(-c4ccccc4)nc4ccccc34)CC2)cc1`, the result in test [1] and in test [2] was inactive.
With `O=S(=O)(c1cccs1)N1CCN(c2nc(-c3cccs3)nc3ccccc23)CC1`, the outcome in test [1] and in test [2] was inactive.
For `O=C(c1ccccc1)N1CCN(c2nc(-c3cccs3)nc3ccccc23)CC1`, the outcome in test [1] and in test [2] was inactive.
As to `O=S(=O)(c1ccc2c(c1)OCO2)N1CCN(c2nc(-c3cccs3)nc3ccccc23)CC1`, the outcome in test [1] and in test [2] was inactive.
For `COc1ccc(N2CCN(c3nc(-c4cccs4)nc4ccccc34)CC2)cc1`, the outcome in test [1] and in test [2] was inactive.
Regarding `Cc1ccc(S(=O)(=O)N2CCN(c3nc(-c4cscn4)nc4ccccc34)CC2)cc1`, the result in test [1] and in test [2] was inactive.
As for `Cc1ccc(S(=O)(=O)N2CCN(c3ccnc(-c4cccs4)n3)CC2)cc1`, the result in test [1] and in test [2] was inactive.
On to `Cc1ccc(S(=O)(=O)C2CCN(c3nc(-c4cccs4)nc4ccccc34)CC2)cc1`, for which the result in test [1] and in test [2] was inactive.
On to `O=S(=O)(c1ccc(F)cc1)N1CCN(c2nc(C3CC3)nc3ccccc23)CC1`, for which the result in test [1] and in test [2] was inactive.
In the case of `O=S(=O)(c1ccc2ccccc2c1)N1CCN(c2nc(-c3ccccc3)nc3ccccc23)CC1`, the result in test [1] and in test [2] was inactive.
Consider `O=S(=O)(c1ccc2c(c1)CCC2)N1CCN(c2nc(-c3ccccc3)nc3ccccc23)CC1`, for which the result in test [1] and in test [2] was inactive.
On to `N#Cc1cccc(S(=O)(=O)N2CCN(c3nc(-c4cccs4)nc4ccccc34)CC2)c1`, for which the result in test [1] and in test [2] was inactive.
Take `O=S(=O)(/C=C/c1ccccc1)N1CCN(c2nc(-c3ccccc3)nc3ccccc23)CC1`: the result in test [1] and in test [2] was inactive.
In the case of `Cc1ccc(S(=O)(=O)N2CCN(c3nc(-n4cnc5ccccc54)nc4ccccc34)CC2)cc1`, the result in test [1] and in test [2] was inactive.
As for `COC(=O)c1nc(N2CCN(S(=O)(=O)c3ccc(C)cc3)CC2)c2ccccc2n1`, the outcome in test [1] and in test [2] was inactive.
With `O=S(=O)(c1cccc(Br)c1)N1CCN(c2nc(-c3cccs3)nc3ccccc23)CC1`, the outcome in test [1] and in test [2] was inactive.
Take `CC(C)(C)C(=O)OCCNc1nc(-c2cccs2)nc2ccccc12`: the result in test [1] and in test [2] was inactive.
Take `Cc1ccc(S(=O)(=O)N(C)CCCN(C)c2nc(-c3cccs3)nc3ccccc23)cc1`: the result in test [1] and in test [2] was inactive.
In the case of `CC1(C)CCc2cc(S(=O)(=O)N3CCN(c4nc(-c5cccs5)nc5ccccc45)CC3)ccc2O1`, the result in test [1] and in test [2] was inactive.
Consider `Oc1ccc(N2CCN(c3nc(-c4cccs4)nc4ccccc34)CC2)cc1`, for which the result in test [1] and in test [2] was inactive.
Take `O=S(=O)(c1nccs1)N1CCN(c2nc(-c3cccs3)nc3ccccc23)CC1`: the outcome in test [1] and in test [2] was inactive.
With `Cc1ccc(S(=O)(=O)N2CCN(c3nc(-c4ccnnc4)nc4ccccc34)CC2)cc1`, the outcome in test [1] and in test [2] was inactive.
Turning to `O=S(=O)(c1ccc(F)cc1)N1CCN(c2nc(-c3ccccc3)nc3ccccc23)CC1`, the result in test [1] and in test [2] was inactive.
Take `COc1ccc(S(=O)(=O)N2CCN(c3nc(-c4cccs4)nc4ccccc34)CC2)cc1`: the result in test [1] and in test [2] was inactive.
With `Cc1ccc(S(=O)(=O)N2CCN(c3nc(-c4ccccc4)nc4ccccc34)CC2)cc1`, the result in test [1] and in test [2] was inactive.
For the compound `NS(=O)(=O)c1ccc(S(=O)(=O)N2CCN(c3nc(-c4ccccc4)nc4ccccc34)CC2)cc1`, the result in test [1] and in test [2] was inactive.
Consider `O=S(=O)(c1ccc(C(F)(F)F)cc1)N1CCN(c2nc(-c3cccs3)nc3ccccc23)CC1`, for which the result in test [1] and in test [2] was inactive.
As to `CC(=O)c1ccc(S(=O)(=O)N2CCN(c3nc(-c4ccccc4)nc4ccccc34)CC2)cc1`, the outcome in test [1] and in test [2] was inactive.
`O=S(=O)(NCCNc1nc(-c2ccco2)nc2ccccc12)c1ccccc1`: the result in test [1] and in test [2] was inactive.
As for `CN(CCN(C)c1nc(-c2cccs2)nc2ccccc12)C(=O)OC(C)(C)C`, the outcome in test [1] and in test [2] was inactive.
For the compound `O=S(=O)(c1ccc(Cl)cc1)N1CCN(c2nc(-c3cccs3)nc3ccccc23)CC1`, the outcome in test [1] and in test [2] was inactive.
For `Cc1ccc(S(=O)(=O)N2CCN(c3ncnc4ccccc34)CC2)cc1`, the result in test [1] and in test [2] was inactive.
`O=S(=O)(c1ccc2c(c1)CCCC2)N1CCN(c2nc(-c3cccs3)nc3ccccc23)CC1`: the outcome in test [1] and in test [2] was inactive.
Regarding `O=S(=O)(c1ccsc1)N1CCN(c2nc(-c3cccs3)nc3ccccc23)CC1`, the outcome in test [1] and in test [2] was inactive.
As to `Cc1ccc(S(=O)(=O)N2CCN(c3nc(-c4ccc(CN5CCNCC5)s4)nc4ccccc34)CC2)cc1`, the result in test [1] and in test [2] was inactive.
Turning to `O=S(=O)(c1ccc(OC(F)(F)F)cc1)N1CCN(c2nc(-c3cccs3)nc3ccccc23)CC1`, the result in test [1] and in test [2] was inactive.
Regarding `CC(C)(C)c1cccc(S(=O)(=O)N2CCN(c3nc(-c4cccs4)nc4ccccc34)CC2)c1`, the result in test [1] and in test [2] was inactive.
For the compound `c1csc(-c2nc(N3CCN(Cc4ccc5c(c4)OCCO5)CC3)c3ccccc3n2)c1`, the outcome in test [1] and in test [2] was inactive.
In the case of `CCOC(=O)c1ccccc1S(=O)(=O)N1CCN(c2nc(-c3cccs3)nc3ccccc23)CC1`, the result in test [1] and in test [2] was inactive.
With `O=S(=O)(N1CCN(c2nc(-c3cccs3)nc3ccccc23)CC1)C(F)(F)F`, the outcome in test [1] and in test [2] was inactive.
`O=S(=O)(c1cccc2ccccc12)N1CCN(c2nc(-c3cccs3)nc3ccccc23)CC1`: the result in test [1] and in test [2] was inactive.
Turning to `Cc1ccc(S(=O)(=O)N2CCN(c3nc(-c4ccc(CN5CCOCC5)s4)nc4ccccc34)CC2)cc1`, the outcome in test [1] and in test [2] was inactive.
With `COc1ccc(S(=O)(=O)N2CCN(c3nc(-c4ccccc4)nc4ccccc34)CC2)cc1`, the result in test [1] and in test [2] was inactive.
Take `Cc1cc(C)cc(S(=O)(=O)N2CCN(c3nc(-c4cccs4)nc4ccccc34)CC2)c1`: the outcome in test [1] and in test [2] was inactive.
As to `O=S(=O)(c1ccccc1F)N1CCN(c2nc(-c3cccs3)nc3ccccc23)CC1`, the outcome in test [1] and in test [2] was inactive.
With `O=[N+]([O-])c1cccc(S(=O)(=O)N2CCN(c3nc(-c4cccs4)nc4ccccc34)CC2)c1`, the outcome in test [1] and in test [2] was inactive.
Regarding `CC(C)(C)OC(=O)N1CCN(c2nc(-c3cccs3)nc3ccccc23)CC1`, the result in test [1] and in test [2] was inactive.
